Experimental data published in patent publication US7060716B2, “Tryptase inhibitors” (Altana Pharma AG, priority 2001, dated 2006).
Structures can show the parent of a compound that is named as a salt.

Biological target: T1, human tryptase (Homo sapiens, UniProt P20231)
T1 construct: from tissue
Assay: Inhibition of human tryptase (apparent dissociation constant Kiapp, chromogenic substrate tos-Gly-Pro-Arg-pNA)
Assay type: biochemical
Details: apparent dissociation constant in the presence of substrate; heparin 0.1–50 μg/ml; equilibrium conditions; read-out: Klapp
Text: The documented pathophysiological effects of mast cell tryptase are caused directly by the enzymatic activity of the protease. Accordingly, they are reduced or blocked by inhibitors which inhibit the enzymatic activity of the tryptase. A suitable measure for the affinity of a reversible inhibitor to the target protease is the equilibrium dissociation constant Ki of the enzyme-inhibitor complex. This Ki value can be determined via the effect of the inhibitor on the tryptase-induced cleavage of a chromogenic peptide-p-nitroanilide substrate or a fluorogenic peptide-aminomethylcoumarin substrate.
The dissociation constants for the tryptase-inhibitor complexes are determined under equilibrium conditions in accordance with the general proposals of Bieth (Bieth J G, Pathophysiological Interpretation of kinetic constants of protease inhibitors, Bull. Europ. Physiopath. Resp. 16:183–195, 1980) and the methods of Sommerhoff et al. (Sommerhoff C P et al., A Kazal-type inhibitor of human mast cell tryptase: Isolation from the medical leech Hirudo medicinalis, characterization, and sequence analysis, Biol. Chem. Hoppe-Seyler 375: 685–694, 1994).
Human tryptase is isolated from lung tissue or prepared recombinantly; the specific activity of the protease, determined by titration, is usually greater than 85% of the theoretical value. […]

T1 sequence (P20231 31-275): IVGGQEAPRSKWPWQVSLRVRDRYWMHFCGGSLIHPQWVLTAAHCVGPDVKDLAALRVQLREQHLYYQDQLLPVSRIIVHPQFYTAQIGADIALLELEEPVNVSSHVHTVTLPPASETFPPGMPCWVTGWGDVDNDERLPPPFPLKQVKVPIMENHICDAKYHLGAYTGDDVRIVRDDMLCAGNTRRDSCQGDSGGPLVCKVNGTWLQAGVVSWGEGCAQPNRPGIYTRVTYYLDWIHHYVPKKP

| SMILES | Ki |
| --- | --- |
| NCc1cccc(CNC(=O)OCC#Cc2cccc(C#CCOC(=O)NCc3cccc(CN)c3)n2)c1 [Compound 1, 2,6-Bis-[3-(3-aminomethylbenzylaminocarbonyloxy)prop-1-ynyl]pyridine trihydrochloride] | 2.6 nM |
| NCc1ccc(CNC(=O)OCC#Cc2cccc(C#CCOC(=O)NCc3ccc(CN)cc3)n2)cc1 [Compound 2, 2,6-Bis-[3-(4-aminomethylbenzylaminocarbonyloxy)prop-1-ynyl]pyridine trihydrochloride] | 6 nM |
